These are literature values, as cited in the Kinase Knowledgebase extract (Sharma et al. 2016).

For the data set, the target named is EGFR (UniProt P00533).
Chain of EGFR (P00533 whole entry, looked up): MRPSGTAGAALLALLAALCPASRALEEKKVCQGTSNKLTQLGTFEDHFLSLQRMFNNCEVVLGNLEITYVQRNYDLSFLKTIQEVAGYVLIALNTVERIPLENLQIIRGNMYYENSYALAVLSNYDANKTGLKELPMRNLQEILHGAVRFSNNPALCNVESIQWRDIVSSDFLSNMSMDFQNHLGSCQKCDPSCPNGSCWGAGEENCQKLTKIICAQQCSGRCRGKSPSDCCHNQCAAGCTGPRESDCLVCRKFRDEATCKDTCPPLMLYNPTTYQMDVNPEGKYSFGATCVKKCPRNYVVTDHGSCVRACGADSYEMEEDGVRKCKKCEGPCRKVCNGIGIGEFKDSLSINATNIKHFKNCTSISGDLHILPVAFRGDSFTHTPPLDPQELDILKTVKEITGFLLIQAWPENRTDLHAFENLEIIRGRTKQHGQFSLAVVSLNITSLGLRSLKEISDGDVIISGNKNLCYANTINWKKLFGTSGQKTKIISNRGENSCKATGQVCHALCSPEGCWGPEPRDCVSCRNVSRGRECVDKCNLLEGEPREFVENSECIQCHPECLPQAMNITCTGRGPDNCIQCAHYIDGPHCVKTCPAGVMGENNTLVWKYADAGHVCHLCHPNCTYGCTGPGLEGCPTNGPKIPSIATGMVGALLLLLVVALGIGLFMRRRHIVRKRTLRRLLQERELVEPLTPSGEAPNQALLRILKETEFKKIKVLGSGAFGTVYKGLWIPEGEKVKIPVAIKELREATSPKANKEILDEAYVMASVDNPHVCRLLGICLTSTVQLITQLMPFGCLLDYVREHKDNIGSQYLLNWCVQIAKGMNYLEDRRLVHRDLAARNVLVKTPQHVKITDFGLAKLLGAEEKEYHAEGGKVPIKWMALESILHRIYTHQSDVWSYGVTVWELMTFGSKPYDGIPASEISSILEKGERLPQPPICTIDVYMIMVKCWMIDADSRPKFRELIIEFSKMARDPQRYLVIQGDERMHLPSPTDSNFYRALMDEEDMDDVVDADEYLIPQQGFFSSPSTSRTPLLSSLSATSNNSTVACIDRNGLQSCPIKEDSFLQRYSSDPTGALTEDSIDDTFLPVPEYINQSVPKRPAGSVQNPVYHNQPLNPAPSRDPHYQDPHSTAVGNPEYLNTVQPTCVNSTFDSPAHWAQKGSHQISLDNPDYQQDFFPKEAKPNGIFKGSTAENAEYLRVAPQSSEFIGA

One may read the IC50 as the concentration at which inhibition is half-maximal. Take `CNc1cc2ncnc(Nc3cccc(C)c3)c2cn1`: the IC50 is 1 nM.
For `COc1cc2c(Nc3cccc(Cl)c3F)ncnc2cc1OCCC1CCN(C)CC1`, the IC50 was 300 nM.
`COc1cc2c(Nc3cccc(Cl)c3F)ncnc2cc1OC/C=C/CN1CCCC1`: the IC50 is 89 nM.
Consider `COc1cc2c(Nc3cccc(Br)c3F)ncnc2cc1OCCC1CCN(C)CC1`, for which the IC50 is 200 nM.
With `CN(C)CCCCCNc1cc2ncnc(Nc3cccc(Br)c3)c2cn1`, the IC50 was 8.3 nM.
For the compound `COc1cc2c(Nc3cccc(C#N)c3F)ncnc2cc1OC/C=C/CN1CCCC1`, the IC50 was 794 nM.
Take `NNc1cc2ncnc(Nc3cccc(Br)c3)c2cn1`: the IC50 was 7 nM.
For `CN(C)CCCNc1cc2ncnc(Nc3cccc(Br)c3)c2cn1`, the IC50 is 8 nM.
`COc1cc2c(Nc3cccc(Br)c3F)ncnc2cc1OC/C=C/CN1CCCC1`: the IC50 is 100 nM.
Regarding `CNc1ncc2ncnc(Nc3cccc(Br)c3)c2n1`, the half-inhibitory concentration (IC50) was 0.75 nM.
As to `O=C(O)c1ccc(-c2cc3c(Nc4cccc(Cl)c4)ncnc3[nH]2)cc1`, the half-maximal inhibitory concentration (IC50) is 1 nM.
As for `Nc1cccc(-c2cc3c(Nc4cccc(Cl)c4)ncnc3[nH]2)c1`, the IC50 is 3.9 nM.
In the case of `c1ccc(Nc2ncnc3[nH]c4ccccc4c23)cc1`, the IC50 is 6920 nM.
Regarding `Cc1cccc(Nc2ncnc3cc(NCCCn4ccnc4)ncc23)c1`, the IC50 is 3.4 nM.
For `COc1cc2c(Nc3cccc(Br)c3F)ncnc2cc1OC[C@H]1CCCN(C)C1`, the IC50 was 100 nM.
As to `Clc1cccc(Nc2ncnc3[nH]c(-c4ccccn4)cc23)c1`, the IC50 was 7 nM.
Turning to `CN(CCO)c1cc2ncnc(Nc3cccc(Br)c3)c2cn1`, the IC50 was 2 nM.
As for `OCC(O)C(O)C(O)C(O)CNc1cc2ncnc(Nc3cccc(Br)c3)c2cn1` (stereo unspecified), the IC50 is 4 nM.
`COc1cc2c(Nc3cccc(Cl)c3F)ncnc2cc1OC[C@@H]1CCCN(C)C1`: the IC50 was 100 nM.
As for `COc1cc2c(Nc3cccc(C)c3F)ncnc2cc1OCC1CCN(C)CC1`, the IC50 was 1000 nM.
Take `COc1ccc(-c2cc3c(Nc4cccc(Cl)c4)ncnc3[nH]2)cc1`: the half-inhibitory concentration (IC50) was 15.1 nM.
Turning to `Nc1ccc(-c2cc3c(Nc4cccc(Cl)c4)ncnc3[nH]2)cc1`, the IC50 is 3 nM.
For the compound `O=C(O)CCCNc1cc2ncnc(Nc3cccc(Br)c3)c2cn1`, the IC50 was 0.2 nM.
Turning to `COCCOc1cc2ncnc(Nc3cccc(Cl)c3F)c2cc1OC`, the IC50 is 100 nM.
`COc1cc2c(Nc3cccc(Br)c3F)ncnc2cc1OCCC1CCNCC1`: the IC50 is 200 nM.
Take `COc1cc2c(Nc3cccc(Br)c3F)ncnc2cc1OCC1CCNCC1`: the IC50 was 200 nM.
In the case of `COc1cc2c(Nc3cccc(C)c3F)ncnc2cc1OCC1CCNCC1`, the IC50 was 500 nM.
As for `CNC(=O)c1cc2c(Nc3cccc(Cl)c3)ncnc2[nH]1`, the concentration for half-maximal inhibition (IC50) is 3 nM.
In the case of `Brc1cccc(Nc2ncnc3cc(NCCN4CCOCC4)ncc23)c1`, the IC50 is 3 nM.
On to `COc1cc2c(Nc3cccc(Cl)c3F)ncnc2cc1OCCCN1CCCC1`, for which the IC50 was 100 nM.
For `[O-][N+]1(CCCNc2cc3ncnc(Nc4cccc(Br)c4)c3cn2)CCOCC1`, the IC50 was 0.7 nM.
`COc1cc2c(Nc3cccc(Cl)c3F)ncnc2cc1OCCN1CCN(C)CC1`: the IC50 was 200 nM.
As to `COc1cc2c(Nc3cccc(Cl)c3F)ncnc2cc1OCC1CCNCC1`, the IC50 was 300 nM.
Take `CN(C)c1cc2ncnc(Nc3cccc(Br)c3)c2cn1`: the IC50 was 0.089 nM.
As for `O=S(=O)(O)CCNc1cc2ncnc(Nc3cccc(Br)c3)c2cn1`, the IC50 is 1 nM.
For the compound `Cc1[nH]c2ncnc(NCc3cccc(Cl)c3)c2c1C`, the IC50 is 1070 nM.
On to `COc1cc2c(Nc3ccc(O)c(C)c3F)ncnc2cc1OCC1CCN(C)CC1`, for which the IC50 is 300 nM.
As for `COc1cc2c(Nc3cccc(Cl)c3F)ncnc2cc1OCCCN1CCN(C)CC1`, the IC50 was 76 nM.
Take `COc1cc2c(Nc3cc(F)cc(Br)c3F)ncnc2cc1OCC1CCN(C)CC1`: the IC50 was 300 nM.
`COc1cc2c(Nc3ccc(O)c(Cl)c3F)ncnc2cc1OCC1CCN(C)CC1`: the 50% inhibitory concentration (IC50) was 100 nM.
Take `OCCNc1cc2ncnc(Nc3cccc(Br)c3)c2cn1`: the IC50 was 0.2 nM.
For the compound `COc1cc2c(Nc3cc(F)cc(Cl)c3F)ncnc2cc1OCC1CCNCC1`, the half-maximal inhibitory concentration (IC50) was 500 nM.
Consider `COc1cc2c(Nc3cccc(Br)c3F)ncnc2cc1OC[C@@H]1CCCN(C)C1`, for which the 50% inhibitory concentration (IC50) was 200 nM.
On to `CN(CC(O)C(O)C(O)C(O)CO)c1cc2ncnc(Nc3cccc(Br)c3)c2cn1` (stereo unspecified), for which the IC50 was 3 nM.
With `COc1cc2c(Nc3cccc(Br)c3F)ncnc2cc1OCCCN1CCN(C)CC1`, the IC50 was 100 nM.
As for `CNc1cc2ncnc(Nc3cccc(Br)c3)c2cn1`, the IC50 was 0.1 nM.
With `Oc1ccc(-c2cc3c(Nc4cccc(Cl)c4)ncnc3[nH]2)cc1`, the IC50 is 3 nM.
As for `COc1cc2c(Nc3cc(F)cc(Cl)c3F)ncnc2cc1OCC1CCN(C)CC1`, the IC50 was 450 nM.
On to `CN(CC(=O)O)c1cc2ncnc(Nc3cccc(Br)c3)c2cn1`, for which the IC50 was 15 nM.
Consider `OCCN(CCO)CCNc1cc2ncnc(Nc3cccc(Br)c3)c2cn1`, for which the IC50 was 9 nM.
As to `Clc1ncc2ncnc(Nc3cccc(Br)c3)c2n1`, the IC50 is 81 nM.
Regarding `COc1cc2c(Nc3cccc(Cl)c3F)ncnc2cc1OCCN1CCOCC1`, the 50% inhibitory concentration (IC50) was 398 nM.
With `CN(CC(O)CO)c1cc2ncnc(Nc3cccc(Br)c3)c2cn1` (stereo unspecified), the IC50 was 3 nM.
As to `COc1cc2c(Nc3cc(F)cc(Br)c3F)ncnc2cc1OCC1CCNCC1`, the 50% inhibitory concentration (IC50) was 450 nM.
Regarding `COc1cc2c(Nc3cccc(Cl)c3F)ncnc2cc1OCCN(C)c1ccncc1`, the IC50 was 300 nM.
In the case of `COc1cc2c(Nc3cccc(Cl)c3F)ncnc2cc1OCCCN1CCOCC1`, the 50% inhibitory concentration (IC50) is 100 nM.
